Experimental data reported in patent US8513234B2, “HIV integrase inhibitors” (Merck Sharp & Dohme Corp., priority 2008, dated 2013).
Like-named read-outs stand apart in the source and are kept apart here.

Columns and labels:
wild type IIIB = test: Single cycle infectivity assay in HeLa P4-2 cells, wild type virus; type: cell-based, HIV
[1] = system: virus containing E92Q mutation in the integrase gene; details: k = IC50(mutant)/IC50(wild type)
Procedure: (§1) An assay for measuring the inhibition of acute HIV infection with HeLa P4-2 cells in a single cycle infectivity assay was conducted using methods described in Joyce et al., J. Biol. Chem. 2002, 277: 45811, Hazuda et al., Science 2000, 287: 646, and Kimpton et al, J. Virol. 1992, 66: 2232. Proviral plasmids encoding viruses containing specific mutations in the integrase gene (N155H, Q148R, Y143R, E92Q, or G140S/Q148H) were generated by site-directed mutagenesis, and viruses were produced by transfecting 293T cells with the appropriate proviral plasmids.

[2] = system: virus containing G140S/Q148H mutation in the integrase gene; details: k = IC50(mutant)/IC50(wild type)
Procedure: as §1

[3] = system: virus containing N155H mutation in the integrase gene; details: k = IC50(mutant)/IC50(wild type)
Procedure: as §1

[4] = system: virus containing Q148R mutation in the integrase gene; details: k = IC50(mutant)/IC50(wild type)
Procedure: as §1

[5] = system: virus containing Y143R mutation in the integrase gene; details: k = IC50(mutant)/IC50(wild type)
Procedure: as §1

[6] = biological target: T1, recombinant integrase (HIV-1 integrase) (Human immunodeficiency virus type 1 group M subtype B, UniProt P04585); test: HIV-1 integrase assay: strand transfer catalyzed by recombinant integrase; type: biochemical; details: strand transfer activity, read-out: IC50
T1 construct: Assays for the strand transfer activity of integrase were conducted in accordance with WO 02/30930 for recombinant integrase
Procedure: HIV-1 Integrase Assay: Strand Transfer Catalyzed by Recombinant Integrase
Assays for the strand transfer activity of integrase were conducted in accordance with WO 02/30930 for recombinant integrase. […] For example, the compounds prepared in Examples 1 to 5 were tested in the integrase assay and found to have the IC50 values in Table B. (Compounds 6A and 6B were not tested in this assay.)
Further description on conducting the assay using preassembled complexes is found in Wolfe, A. L. et al., J. Virol. 1996, 70: 1424-1432, Hazuda et al., J. Virol. 1997, 71: 7005-7011; Hazuda et al., Drug Design and Discovery 1997, 15: 17-24; and Hazuda et al., Science 2000, 287: 646-650.

HIV-1 = test: Inhibition of acute HIV-1 infection of T-lymphoid cells (spread assay); type: cell-based
Procedure: Assay for Inhibition of HIV-1 Replication
Assays for the inhibition of acute HIV-1 infection of T-lymphoid cells were conducted in accordance with Vacca, J. P. et al, Proc. Natl. Acad. Sci. USA 1994, 91: 4096.

[7] = Human immunodeficiency virus 1, IIIB, HeLaP4-2, HeLa P4-2 cells, single cycle infectivity, wild type IIIB, read-out: wild type IIIB IC50

Structure (SMILES): CN(C)C(=O)C(=O)N(C)C1CCCCn2c1nc(C(=O)NCc1ccc(F)cc1)c(O)c2=O (single isomer, unassigned; (-)) [Compound Y, (−)N-(2-{[(4-fluorobenzyl)amino]carbonyl}-3-hydroxy-4-oxo-4,6,7,8,9,10-hexahydropyrimido[1,2-a]azepin-10-yl)-N,N′,N′-trimethylethanediamide, reference compound]
- IC50 (wild type IIIB; [7]): 16 nM
- Number of fold shift in IC50 versus wild type IIIB, E92Q [1]: 4
- Number of fold shift in IC50 versus wild type IIIB, G140S/Q148H [2]: 406
- Number of fold shift in IC50 versus wild type IIIB, N155H [3]: 15
- Number of fold shift in IC50 versus wild type IIIB, Q148R [4]: 26
- Number of fold shift in IC50 versus wild type IIIB, Y143R [5]: 1

Structure (SMILES): CO[C@]1(C)CC[C@@H](N(C)C(=O)C(=O)N(C)C)c2nc(C(=O)NCc3ccc(F)c(C)c3)c(O)c(=O)n2C1 [Compound 2A, N-((7R,10R)-2-{[(4-fluoro-3-methylbenzyl)amino]carbonyl}-3-hydroxy-7-methoxy-7-methyl-4-oxo-4,6,7,8,9,10-hexahydropyrimido[1,2-a]azepin-10-yl)-N,N′,N′-trimethylethanediamide]
- IC50 [6]: 37 nM
- IC95 (nM) in the presence of 10% FBS (HIV-1): 14 nM
- IC50 (wild type IIIB; [7]): 17 nM
- Number of fold shift in IC50 versus wild type IIIB, E92Q [1]: 1
- Number of fold shift in IC50 versus wild type IIIB, G140S/Q148H [2]: 10
- Number of fold shift in IC50 versus wild type IIIB, N155H [3]: 2
- Number of fold shift in IC50 versus wild type IIIB, Q148R [4]: 1
- Number of fold shift in IC50 versus wild type IIIB, Y143R [5]: 2

Structure (SMILES): Cc1cc(CNC(=O)c2nc3n(c(=O)c2O)[C@@H](C)COC[C@H]3N(C)C(=O)C(=O)N(C)C)ccc1F [Compound 4A, N-((6S,10S)-2-{[(4-fluoro-3-methylbenzyl)amino]carbonyl}-3-hydroxy-6-methyl-4-oxo-6,7,9,10-tetrahydro-4H-pyrimido[1,2-d][1,4]oxazepin-10-yl)-N,N′,N′-trimethylethanediamide]
- IC50 [6]: 38 nM
- IC95 (nM) in the presence of 10% FBS (HIV-1): 10 nM
- IC50 (wild type IIIB; [7]): 19 nM
- Number of fold shift in IC50 versus wild type IIIB, E92Q [1]: 1
- Number of fold shift in IC50 versus wild type IIIB, G140S/Q148H [2]: 12
- Number of fold shift in IC50 versus wild type IIIB, N155H [3]: 2
- Number of fold shift in IC50 versus wild type IIIB, Q148R [4]: 2
- Number of fold shift in IC50 versus wild type IIIB, Y143R [5]: 2

Structure (SMILES): Cc1cc(CNC(=O)c2nc3n(c(=O)c2O)[C@H](C)COC[C@H]3N(C)C(=O)C(=O)N(C)C)ccc1F [Compound 4D, N-((6R,10S)-2-{[(4-fluoro-3-methylbenzyl)amino]carbonyl}-3-hydroxy-6-methyl-4-oxo-6,7,9,10-tetrahydro-4H-pyrimido[1,2-d][1,4]oxazepin-10-yl)-N,N′,N′-trimethylethanediamide]
- IC50 [6]: 36 nM
- IC95 (nM) in the presence of 10% FBS (HIV-1): 6 nM
- IC50 (wild type IIIB; [7]): 20 nM
- Number of fold shift in IC50 versus wild type IIIB, G140S/Q148H [2]: 72
- Number of fold shift in IC50 versus wild type IIIB, N155H [3]: 8
- Number of fold shift in IC50 versus wild type IIIB, Q148R [4]: 9
- Number of fold shift in IC50 versus wild type IIIB, Y143R [5]: 2

Structure (SMILES): CC[C@H]1COC[C@@H](N(C)C(=O)C(=O)N(C)C)c2nc(C(=O)NCc3ccc(F)cc3)c(O)c(=O)n21 [Compound 5A, N-((6S,10S)-6-ethyl-2-{[(4-fluorobenzyl)amino]carbonyl}-3-hydroxy-4-oxo-6,7,9,10-tetrahydro-4-pyrimido[1,2-][1,4]oxazepin-10-yl)-N N′N′-trimethylethanediamide]
- IC50 [6]: 46 nM
- IC95 (nM) in the presence of 10% FBS (HIV-1): 12 nM
- IC50 (wild type IIIB; [7]): 28 nM
- Number of fold shift in IC50 versus wild type IIIB, E92Q [1]: 2
- Number of fold shift in IC50 versus wild type IIIB, G140S/Q148H [2]: 4
- Number of fold shift in IC50 versus wild type IIIB, N155H [3]: 1
- Number of fold shift in IC50 versus wild type IIIB, Q148R [4]: 1
- Number of fold shift in IC50 versus wild type IIIB, Y143R [5]: 1

Structure (SMILES): CC[C@H]1COC[C@H](N(C)C(=O)C(=O)N(C)C)c2nc(C(=O)NCc3ccc(F)cc3)c(O)c(=O)n21 [Compound 5B]
- IC50 [6]: 40 nM
- IC95 (nM) in the presence of 10% FBS (HIV-1): 10 nM
- IC50 (wild type IIIB; [7]): 42 nM
- Number of fold shift in IC50 versus wild type IIIB, E92Q [1]: 1
- Number of fold shift in IC50 versus wild type IIIB, G140S/Q148H [2]: 11
- Number of fold shift in IC50 versus wild type IIIB, N155H [3]: 3
- Number of fold shift in IC50 versus wild type IIIB, Q148R [4]: 1
- Number of fold shift in IC50 versus wild type IIIB, Y143R [5]: 2

Structure (SMILES): CC[C@@H]1COC[C@H](N(C)C(=O)C(=O)N(C)C)c2nc(C(=O)NCc3ccc(F)cc3)c(O)c(=O)n21 [Compound 5C, N-((6R,10R)-6-ethyl-2-{[(4-fluorobenzyl)amino]carbonyl}-3-hydroxy-4-oxo-6,7,9,10-tetrahydro-4H-pyrimido[1,2-d][1,4]oxazepin-10-yl)-N N′N′-trimethylethanediamide]
- IC50 [6]: 41 nM
- IC95 (nM) in the presence of 10% FBS (HIV-1): 14 nM
- IC50 (wild type IIIB; [7]): 21 nM
- Number of fold shift in IC50 versus wild type IIIB, G140S/Q148H [2]: 116
- Number of fold shift in IC50 versus wild type IIIB, N155H [3]: 7
- Number of fold shift in IC50 versus wild type IIIB, Q148R [4]: 7
- Number of fold shift in IC50 versus wild type IIIB, Y143R [5]: 2

Structure (SMILES): CC[C@@H]1COC[C@@H](N(C)C(=O)C(=O)N(C)C)c2nc(C(=O)NCc3ccc(F)cc3)c(O)c(=O)n21 [Compound 5D, N-((6R,10S)-6-ethyl-2-{[(4-fluorobenzyl)amino]carbonyl}-3-hydroxy-4-oxo-6,7,9,10-tetrahydro-4H-pyrimido[1,2-d][1,4]oxazepin-10-yl)-N N′ N′-trimethylethanediamide]
- IC50 [6]: 42 nM
- IC95 (nM) in the presence of 10% FBS (HIV-1): 20 nM
- IC50 (wild type IIIB; [7]): 26 nM
- Number of fold shift in IC50 versus wild type IIIB, G140S/Q148H [2]: 18
- Number of fold shift in IC50 versus wild type IIIB, N155H [3]: 13
- Number of fold shift in IC50 versus wild type IIIB, Q148R [4]: 14
- Number of fold shift in IC50 versus wild type IIIB, Y143R [5]: 1

Structure (SMILES): CCN(C(=O)C(=O)N(C)C)[C@@H]1CC[C@H](OC)Cn2c1nc(C(=O)NCc1ccc(F)cc1)c(O)c2=O [Compound 6A, N-ethyl-N-((7S,10R)-2-{[(4-fluorobenzyl)amino]carbonyl}-3-hydroxy-7-methoxy-4-oxo-4,6,7,8,9,10-hexahydropyrimido [1,2-a]azepin-10-yl)-N′,N′-dimethylethanediamide]
- IC95 (nM) in the presence of 10% FBS (HIV-1): 12 nM
- IC50 (wild type IIIB; [7]): 16 nM
- Number of fold shift in IC50 versus wild type IIIB, E92Q [1]: 3
- Number of fold shift in IC50 versus wild type IIIB, G140S/Q148H [2]: 2
- Number of fold shift in IC50 versus wild type IIIB, N155H [3]: 2
- Number of fold shift in IC50 versus wild type IIIB, Q148R [4]: 1
- Number of fold shift in IC50 versus wild type IIIB, Y143R [5]: 3

Structure (SMILES): Cc1nnc(C(=O)NC(C)(C)c2nc(C(=O)NCc3ccc(F)cc3)c(O)c(=O)n2C)o1 [Compound X, raltegravir, reference compound]
- IC50 (wild type IIIB; Human immunodeficiency virus 1, IIIB, HeLaP4-2, read-out: wild type IIIB IC50 (nM)): 52 nM
- Number of fold shift in IC50 versus wild type IIIB, E92Q [1]: 3
- Number of fold shift in IC50 versus wild type IIIB, G140S/Q148H [2]: 397
- Number of fold shift in IC50 versus wild type IIIB, N155H [3]: 13
- Number of fold shift in IC50 versus wild type IIIB, Q148R [4]: 22
- Number of fold shift in IC50 versus wild type IIIB, Y143R [5]: 15

Structure (SMILES): CC1(C)OCCn2c1nc(C(=O)NCc1ccc(F)cc1)c(O)c2=O [Compound Z, N-[(4-fluorophenyl)methyl]-3-hydroxy-9,9-dimethyl-4-oxo-4,6,7,9-tetrahydro-6H-pyrimido[2,1-c][1,4]oxazine-2-carboxamide, reference compound]
- IC50 (wild type IIIB; HeLa P4-2 cells, single cycle infectivity, wild type IIIB, read-out: wild type IIIB IC50): 34 nM
- Number of fold shift in IC50 versus wild type IIIB, E92Q [1]: 26
- Number of fold shift in IC50 versus wild type IIIB, G140S/Q148H [2]: >34
- Number of fold shift in IC50 versus wild type IIIB, N155H [3]: 32
- Number of fold shift in IC50 versus wild type IIIB, Q148R [4]: >34
- Number of fold shift in IC50 versus wild type IIIB, Y143R [5]: 1
